Results as given in PubChem BioAssay AID1963439 (Molecular Pharmacology Branch, DTP, NCI, 2024).
Where “and” joins values, the source holds several entries; their conditions need not be identical. Equal values may be shown once.

Test system: NCI-H196 complex spheroids with HUVEC/MSC, growth % T/C
Test: Anticancer human tumor NCI-H196 cell line growth inhibition [Asc];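 further: spheroids exposed to compound for 7 days before measurement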;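 on viability, T/C: 100% = DMSO vehicle control wells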
Conditions: for viability, T/C: stronger effect = lower value
Procedure, shortened: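 Complex spheroids combining tumor cells with HUVEC endothelial cells and human MSCs, at 37 degrees C, 5% CO2; agents tested alone or combined, half-log dilutions from at or near clinical Cmax, or 10 microM if Cmax unknown.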

[1] = curve of first compound, second compound 0.03 µM
[2] = curve of first compound, second compound 0.0949 µM
[3] = curve of first compound, second compound 0.3 µM
[4] = curve of first compound, second compound 0.949 µM
[5] = curve of first compound, second compound 3 µM

## Cn1ncnc1[C@H]1c2n[nH]c(=O)c3cc(F)cc(c23)N[C@@H]1c1ccc(F)cc1 + CNC(C)C(=O)NC1CN(S(=O)(=O)c2cccc(S(=O)(=O)N3CCC4CCC(C(=O)NC(c5ccccc5)c5ccccc5)N4C(=O)C(NC(=O)C(C)NC)C3)c2)CCC2CCC(C(=O)NC(c3ccccc3)c3ccccc3)N2C1=O
Curve of first compound, second compound 0.01 µM
  IC50: < 0.316 nM
Curve of first compound, second compound 0.0316 µM
  IC50: < 0.316 nM
Curve of first compound, second compound 0.1 µM
  IC50: < 0.316 nM
Curve of first compound, second compound 0.316 µM
  IC50: < 0.316 nM
Curve of first compound, second compound 1 µM
  IC50: < 0.316 nM
Second compound 0.01 µM, first compound 0.000316 µM
  viability, T/C: 5.99%
Second compound 0.01 µM, first compound 0.001 µM
  viability, T/C: 6.41%
Second compound 0.01 µM, first compound 0.00316 µM
  viability, T/C: 5.39%
Second compound 0.01 µM, first compound 0.01 µM
  viability, T/C: 5.55%
Second compound 0.01 µM, first compound 0.0316 µM
  viability, T/C: 9.54%
Second compound 0.01 µM, first compound 0.1 µM
  viability, T/C: 6.44%
Second compound 0.0316 µM, first compound 0.000316 µM
  viability, T/C: 7.02%
Second compound 0.0316 µM, first compound 0.001 µM
  viability, T/C: 6.75%
Second compound 0.0316 µM, first compound 0.00316 µM
  viability, T/C: 5.6%
Second compound 0.0316 µM, first compound 0.01 µM
  viability, T/C: 4.53%
Second compound 0.0316 µM, first compound 0.0316 µM
  viability, T/C: 3.1%
Second compound 0.0316 µM, first compound 0.1 µM
  viability, T/C: 4.55%
Second compound 0.1 µM, first compound 0.000316 µM
  viability, T/C: 4.37%
Second compound 0.1 µM, first compound 0.001 µM
  viability, T/C: 3.32%
Second compound 0.1 µM, first compound 0.00316 µM
  viability, T/C: 4.82%
Second compound 0.1 µM, first compound 0.01 µM
  viability, T/C: 3.9%
Second compound 0.1 µM, first compound 0.0316 µM
  viability, T/C: 2.51%
Second compound 0.1 µM, first compound 0.1 µM
  viability, T/C: 3.65%
Second compound 0.316 µM, first compound 0.000316 µM
  viability, T/C: 3.1%
Second compound 0.316 µM, first compound 0.001 µM
  viability, T/C: 3.37%
Second compound 0.316 µM, first compound 0.00316 µM
  viability, T/C: 3.42%
Second compound 0.316 µM, first compound 0.01 µM
  viability, T/C: 3.57%
Second compound 0.316 µM, first compound 0.0316 µM
  viability, T/C: 2.58%
Second compound 0.316 µM, first compound 0.1 µM
  viability, T/C: 4.61%
Second compound 1 µM, first compound 0.000316 µM
  viability, T/C: 2.27%
Second compound 1 µM, first compound 0.001 µM
  viability, T/C: 4.58%
Second compound 1 µM, first compound 0.00316 µM
  viability, T/C: 3.37%
Second compound 1 µM, first compound 0.01 µM
  viability, T/C: 3%
Second compound 1 µM, first compound 0.0316 µM
  viability, T/C: 3.76%
Second compound 1 µM, first compound 0.1 µM
  viability, T/C: 5.53%

## C#Cc1c(F)ccc2cc(O)cc(-c3ncc4c(N5CC6CCC(C5)N6)nc(OCC56CCCN5CC(F)C6)nc4c3F)c12 (configuration not stated) + CCN1C(C(=O)NC23CCC(C(=O)O)(CC2)CC3)C(c2cccc(Cl)c2F)C2(C(=O)Nc3cc(Cl)ccc32)C12CCCCC2
[1]
  IC50: > 10000 nM
[2]
  IC50: > 10000 nM
[3]
  IC50: > 10000 nM
[4]
  IC50: > 10000 nM
[5]
  IC50: > 10000 nM
Second compound 0.03 µM, first compound 0.0316 µM
  viability, T/C: 96.4%
Second compound 0.03 µM, first compound 0.1 µM
  viability, T/C: 102%
Second compound 0.03 µM, first compound 0.316 µM
  viability, T/C: 97.6%
Second compound 0.03 µM, first compound 1 µM
  viability, T/C: 101%
Second compound 0.03 µM, first compound 3.16 µM
  viability, T/C: 88.7%
Second compound 0.03 µM, first compound 10 µM
  viability, T/C: 104%
Second compound 0.0949 µM, first compound 0.0316 µM
  viability, T/C: 102%
Second compound 0.0949 µM, first compound 0.1 µM
  viability, T/C: 110%
Second compound 0.0949 µM, first compound 0.316 µM
  viability, T/C: 106%
Second compound 0.0949 µM, first compound 1 µM
  viability, T/C: 95.8%
Second compound 0.0949 µM, first compound 3.16 µM
  viability, T/C: 110%
Second compound 0.0949 µM, first compound 10 µM
  viability, T/C: 97.4%
Second compound 0.3 µM, first compound 0.0316 µM
  viability, T/C: 109%
Second compound 0.3 µM, first compound 0.1 µM
  viability, T/C: 108%
Second compound 0.3 µM, first compound 0.316 µM
  viability, T/C: 117%
Second compound 0.3 µM, first compound 1 µM
  viability, T/C: 96.9%
Second compound 0.3 µM, first compound 3.16 µM
  viability, T/C: 97.5%
Second compound 0.3 µM, first compound 10 µM
  viability, T/C: 99%
Second compound 0.949 µM, first compound 0.0316 µM
  viability, T/C: 123%
Second compound 0.949 µM, first compound 0.1 µM
  viability, T/C: 123%
Second compound 0.949 µM, first compound 0.316 µM
  viability, T/C: 115%
Second compound 0.949 µM, first compound 1 µM
  viability, T/C: 93%
Second compound 0.949 µM, first compound 3.16 µM
  viability, T/C: 115%
Second compound 0.949 µM, first compound 10 µM
  viability, T/C: 103%
Second compound 3 µM, first compound 0.0316 µM
  viability, T/C: 118%
Second compound 3 µM, first compound 0.1 µM
  viability, T/C: 123%
Second compound 3 µM, first compound 0.316 µM
  viability, T/C: 129%
Second compound 3 µM, first compound 1 µM
  viability, T/C: 114%
Second compound 3 µM, first compound 3.16 µM
  viability, T/C: 108%
Second compound 3 µM, first compound 10 µM
  viability, T/C: 114%

## Cc1nc(N2CCC3(CC2)COC(C)C3N)c(CO)nc1Sc1ccnc(N)c1Cl (configuration not stated)
Compound 0.00949 µM
  viability, T/C: 108% and 110% and 98.4%
Compound 0.03 µM
  viability, T/C: 142% and 106% and 101%
Compound 0.0949 µM
  viability, T/C: 106% and 99% and 102%
Compound 0.3 µM
  viability, T/C: 86.8% and 96.3% and 92.5%
Compound 0.949 µM
  viability, T/C: 43% and 63.5% and 67.1%
Compound 3 µM
  viability, T/C: 13.2% and 30.9% and 37.1%
Curve of compound
  IC50: 777 nM and 1550 nM and 1820 nM

## Cc1nc(N2CCC3(CC2)COC(C)C3N)c(CO)nc1Sc1ccnc(N)c1Cl (configuration not stated) + CCN1C(C(=O)NC23CCC(C(=O)O)(CC2)CC3)C(c2cccc(Cl)c2F)C2(C(=O)Nc3cc(Cl)ccc32)C12CCCCC2
[1]
  IC50: 1540 nM
[2]
  IC50: 1900 nM
[3]
  IC50: 1600 nM
[4]
  IC50: 1730 nM
[5]
  IC50: 1570 nM
Second compound 0.03 µM, first compound 0.00949 µM
  viability, T/C: 102%
Second compound 0.03 µM, first compound 0.03 µM
  viability, T/C: 103%
Second compound 0.03 µM, first compound 0.0949 µM
  viability, T/C: 115%
Second compound 0.03 µM, first compound 0.3 µM
  viability, T/C: 102%
Second compound 0.03 µM, first compound 0.949 µM
  viability, T/C: 64.6%
Second compound 0.03 µM, first compound 3 µM
  viability, T/C: 30.2%
Second compound 0.0949 µM, first compound 0.00949 µM
  viability, T/C: 108%
Second compound 0.0949 µM, first compound 0.03 µM
  viability, T/C: 113%
Second compound 0.0949 µM, first compound 0.0949 µM
  viability, T/C: 109%
Second compound 0.0949 µM, first compound 0.3 µM
  viability, T/C: 95.5%
Second compound 0.0949 µM, first compound 0.949 µM
  viability, T/C: 74.1%
Second compound 0.0949 µM, first compound 3 µM
  viability, T/C: 34.5%
Second compound 0.3 µM, first compound 0.00949 µM
  viability, T/C: 118%
Second compound 0.3 µM, first compound 0.03 µM
  viability, T/C: 124%
Second compound 0.3 µM, first compound 0.0949 µM
  viability, T/C: 119%
Second compound 0.3 µM, first compound 0.3 µM
  viability, T/C: 99.8%
Second compound 0.3 µM, first compound 0.949 µM
  viability, T/C: 69.1%
Second compound 0.3 µM, first compound 3 µM
  viability, T/C: 27.9%
Second compound 0.949 µM, first compound 0.00949 µM
  viability, T/C: 124%
Second compound 0.949 µM, first compound 0.03 µM
  viability, T/C: 137%
Second compound 0.949 µM, first compound 0.0949 µM
  viability, T/C: 119%
Second compound 0.949 µM, first compound 0.3 µM
  viability, T/C: 107%
Second compound 0.949 µM, first compound 0.949 µM
  viability, T/C: 72.1%
Second compound 0.949 µM, first compound 3 µM
  viability, T/C: 29.9%
Second compound 3 µM, first compound 0.00949 µM
  viability, T/C: 136%
Second compound 3 µM, first compound 0.03 µM
  viability, T/C: 130%
Second compound 3 µM, first compound 0.0949 µM
  viability, T/C: 121%
Second compound 3 µM, first compound 0.3 µM
  viability, T/C: 106%
Second compound 3 µM, first compound 0.949 µM
  viability, T/C: 67.4%
Second compound 3 µM, first compound 3 µM
  viability, T/C: 26.5%
